Test results reported in US20080287653A1, “METHOD FOR PRODUCING INHIBITORS AND INHIBITORS FORMED THEREFROM” (THE UNIVERSITY OF AKRON, priority 2007, published 2008).
Non-standard residues stand in square brackets, D forms with d. Residues, ends and D or L forms follow the SMILES beside them. Lys(Thioacetyl) = CC(=S)NCCCC[C@H](N)C(=O)O

Key:
Assay type in all cases: biochemical
SIRT1 = target: T1, SIRT1 (Homo sapiens, UniProt Q96EB6); test: HPLC-based SIRT1 inhibition assay with purified GST-SIRT1
T1 construct: made in house
T1 sequence (Q96EB6 1-747): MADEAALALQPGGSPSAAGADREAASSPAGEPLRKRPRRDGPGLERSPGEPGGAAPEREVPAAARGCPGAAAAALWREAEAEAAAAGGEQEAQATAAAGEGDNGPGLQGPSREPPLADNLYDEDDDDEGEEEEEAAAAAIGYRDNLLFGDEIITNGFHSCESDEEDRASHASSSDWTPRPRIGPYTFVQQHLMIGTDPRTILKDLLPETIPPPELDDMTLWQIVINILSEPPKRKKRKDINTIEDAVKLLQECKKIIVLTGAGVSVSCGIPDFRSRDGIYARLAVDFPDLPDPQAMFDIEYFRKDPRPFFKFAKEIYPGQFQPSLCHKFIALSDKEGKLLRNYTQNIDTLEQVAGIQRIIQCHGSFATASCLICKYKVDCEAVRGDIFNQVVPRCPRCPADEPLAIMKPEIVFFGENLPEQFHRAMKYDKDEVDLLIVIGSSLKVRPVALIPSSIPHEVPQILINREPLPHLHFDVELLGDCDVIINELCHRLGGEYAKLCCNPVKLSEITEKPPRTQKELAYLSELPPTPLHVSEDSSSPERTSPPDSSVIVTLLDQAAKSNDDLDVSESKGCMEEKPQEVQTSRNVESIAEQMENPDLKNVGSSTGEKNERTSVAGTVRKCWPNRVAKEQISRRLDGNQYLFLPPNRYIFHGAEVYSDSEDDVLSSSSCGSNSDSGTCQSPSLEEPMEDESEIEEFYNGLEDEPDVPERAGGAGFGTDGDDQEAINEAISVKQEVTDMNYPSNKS
Procedure: Inhibition assays with purified SIRT1, SIRT2, and SIRT3. GST-SIRT1 that could be produced in a laboratory was used for the SIRT1 inhibition assay. SIRT2 and SIRT3 are obtainable from commercial sources known to those skilled in the art. Consistent HPLC-based assay procedures were used for the inhibition assays with SIRT1, SIRT2, and SIRT3. […] An enzymatic reaction was initiated by the addition of an enzyme at 37° C. and was allowed to be incubated at 37° C.: 10 minutes as follows: for SIRT1 assay, or 60 minutes for SIRT2 and SIRT3 assays. Incubation was quenched at the indicated time with the following stop solution: 100 mM HCl and 0.16 M acetic acid. […] All peptide stock solutions were prepared in ddH2O. IC50 values were estimated from Dixon plots (1/v0 vs. [inhibitor]) as an indication of the inhibition potency.

SIRT3 = target: T2, SIRT3 (Homo sapiens, UniProt Q9NTG7); test: HPLC-based SIRT3 inhibition assay with purified SIRT3; settings: SIRT3 vs SIRT2
T2 construct: purchased
T2 sequence (Q9NTG7 1-399): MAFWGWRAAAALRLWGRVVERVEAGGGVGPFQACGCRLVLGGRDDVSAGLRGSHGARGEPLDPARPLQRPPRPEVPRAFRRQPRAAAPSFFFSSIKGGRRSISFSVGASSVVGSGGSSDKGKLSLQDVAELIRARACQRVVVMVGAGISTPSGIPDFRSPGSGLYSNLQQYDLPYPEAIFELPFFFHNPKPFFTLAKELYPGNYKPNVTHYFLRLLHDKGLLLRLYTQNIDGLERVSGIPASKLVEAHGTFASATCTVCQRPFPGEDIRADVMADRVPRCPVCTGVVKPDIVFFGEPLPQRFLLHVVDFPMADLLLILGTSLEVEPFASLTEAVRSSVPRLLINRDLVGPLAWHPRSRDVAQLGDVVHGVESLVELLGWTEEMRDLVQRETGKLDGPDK
Procedure: (§1) Inhibition assays with purified SIRT1, SIRT2, and SIRT3. GST-SIRT1 that could be produced in a laboratory was used for the SIRT1 inhibition assay. SIRT2 and SIRT3 are obtainable from commercial sources known to those skilled in the art. Consistent HPLC-based assay procedures were used for the inhibition assays with SIRT1, SIRT2, and SIRT3. In brief, an inhibition assay solution had the following components: 25 mM (or 50 mM for SIRT2 assay) Tris.HCl (pH 8.0) 137 mM NaCl, 2.7 mM KCl, 1 mM MgCl2, 1 mg/mL BSA (SIGMA Cat. #A3803 with reduced fatty acid content, for SIRT2 assay only), 0.5 mM β-NAD^+, 0.3 mM peptide substrate (peptide 1b for SIRT1 and SIRT2 assays; peptide 3b for SIRT3 assay), an inhibitor (peptide 1a, 2, or 3a) with varied concentrations including 0, and an enzyme (GST-SIRT1, 0.15 μM; SIRT2, 0.3 μM; or SIRT3, 2.0 μM). […] An enzymatic reaction was initiated by the addition of an enzyme at 37° C. and was allowed to be incubated at 37° C.: 10 minutes as follows: for SIRT1 assay, or 60 minutes for SIRT2 and SIRT3 assays. […] The enzymatic deacetylation products (peptide 1c in SIRT1 and SIRT2 assays; peptide 3c in SIRT3 assay) were confirmed by their comigration with the chemically synthesized authentic samples and by MALDI-TOF mass spectrometric analysis, and were quantified by HPLC peak integration and comparison with those of synthetic authentic samples. […]

SIRT2 = target: T3, SIRT2 (Homo sapiens, UniProt Q8IXJ6); test: HPLC-based SIRT2 inhibition assay with purified SIRT2; settings: SIRT2 vs SIRT3
T3 construct: purchased
T3 sequence (Q8IXJ6 1-389): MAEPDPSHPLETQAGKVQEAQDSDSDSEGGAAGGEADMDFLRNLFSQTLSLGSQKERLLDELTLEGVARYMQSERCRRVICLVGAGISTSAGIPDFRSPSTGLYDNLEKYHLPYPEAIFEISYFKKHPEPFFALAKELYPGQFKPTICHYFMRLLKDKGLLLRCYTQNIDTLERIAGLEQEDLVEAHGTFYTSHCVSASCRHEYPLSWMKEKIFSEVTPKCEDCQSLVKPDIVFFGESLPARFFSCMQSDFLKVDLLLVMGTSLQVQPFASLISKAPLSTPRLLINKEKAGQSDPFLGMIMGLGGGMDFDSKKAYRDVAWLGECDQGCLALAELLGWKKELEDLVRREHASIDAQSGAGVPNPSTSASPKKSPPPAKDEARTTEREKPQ
Procedure: as §1

inhibition weaker for SIRT1 as compared to SIRT2 (SIRT1; SIRT1 vs SIRT2)	inhibition weaker for SIRT3 as compared to SIRT2 (SIRT3)	stronger inhibition with respect to SIRT1 than SIRT2 and SIRT3 (SIRT1; SIRT1 vs SIRT2 and SIRT3)	inhibition potency for SIRT2 relative to SIRT3 (SIRT2)	Structure (SMILES)
about 10 fold	about 40 fold			CC[C@H](C)[C@H](NC(=O)[C@@H](NC(=O)[C@H](CCCCNC(C)=S)NC(=O)[C@H](CC(=O)O)NC(=O)[C@H](CO)NC(=O)[C@@H]1CCCN1C(=O)[C@@H](N)CCSC)[C@@H](C)O)C(=O)NCC(=O)NCC(=O)O [Peptide 2] (H-MPSD[Lys(Thioacetyl)]TIGG-OH)
		about 5 fold	comparably potent inhibitor	CC[C@H](C)[C@H](NC(=O)[C@@H](NC(=O)[C@H](CCCCN)NC(=O)[C@H](CCCNC(=N)N)NC(=O)[C@H](CC(C)C)NC(=O)[C@H](CC(C)C)NC(=O)[C@H](CCCNC(=N)N)NC(=O)[C@H](CCCNC(=N)N)NC(=O)[C@H](CCSC)NC(=O)[C@@H](NC(=O)[C@H](CCCCNC(C)=S)NC(=O)CNC(=O)[C@H](CO)NC(=O)[C@H](CCCNC(=N)N)NC(=O)[C@@H](NC(=O)[C@H](CCCCN)NC(=O)[C@@H]1CCCN1C(=O)[C@H](CC(C)C)NC(=O)[C@H](CCCNC(=N)N)NC(=O)[C@@H](N)CCCCN)[C@@H](C)O)C(C)C)[C@@H](C)CC)C(=O)O [Peptide 3a] (H-KRLPKTRSG[Lys(Thioacetyl)]VMRRLLRKII-OH)
